According to publication PMC10041525, “New Dual Inhibitors of Bacterial Topoisomerases with Broad-Spectrum Antibacterial Activity and In Vivo Efficacy against Vancomycin-Intermediate Staphylococcus aureus” (Journal of Medicinal Chemistry, 2023):
In brackets after ≈: the same amount, converted by molar mass. Like-named read-outs stand apart in the source and are kept apart here.

What was measured:
DNA gyrase from E. coli = target: T1, DNA gyrase from E. coli (Escherichia coli, UniProt P0AES6); test: supercoiling HTS plate assay; format: biochemical; conditions: IC50 [nM] E. coli DNA gyrase
T1 construct: purchased Inspiralis
Protocol: (§1) All compounds were tested for their inhibitory activities against DNA gyrase and topo IV from E. coli in supercoiling and relaxation high-throughput plate assays, respectively. Our new series of inhibitors were then tested against a panel of Gram-positive and Gram-negative bacteria.
(§2) Seven concentrations of the inhibitors were used to determine IC50 values which were then calculated with GraphPad Prism 6.0 software. Three independent measurements were performed to determine IC50 values, and mean values are reported as the final result.

A. baumannii ATCC 17978 = test: MIC broth microdilution (CLSI); format: cell-based; conditions: Acinetobacter baumannii, ATCC17978
Protocol: (§3) Cation-adjusted Mueller Hinton broth 2 (MHBII) was used for bacterial growth under standard laboratory conditions and for antimicrobial susceptibility tests. MHBII broth was prepared by dissolving 22 g of MHBII powder [containing beef extract (3 g), acid hydrolysate of casein (17.5 g), and starch (1.5 g); Becton Dickinson and Co.] in 1 L of water. To prepare MHBII agar, 14 g of agar (Bacto; Molar Chemicals) was added to 1 L of broth.
(§4) Bacterial strains were inoculated onto MHBII agar plates and grown overnight at 37 °C. Next, three individual colonies from each strain were inoculated into 1 mL of MHBII medium and propagated at 37 °C overnight, with agitation at 250 rpm. For Enterococcus sp., the cells were plated in brain–heart infusion [(BHI) medium] agar plates, and BHI broth was used to determine the MICs. […] Following the dilutions, each well was seeded with 5 × 10^4 bacterial cells (in 100 μL final volume). Each measurement was performed in three parallel replicates, and to avoid possible edge effects in the microwell plates, the outside rows (A, H) were filled with sterile medium. Following the inoculations, the plates were covered with the lids and wrapped in polyethylene plastic bags, to minimize evaporation but to allow O2 transfer. […] After incubation, the OD600 of each well was measured using a microplate reader (Synergy 2; Biotek).

S. aureus ATCC 29213 = test: MIC broth microdilution (CLSI); format: cell-based; conditions: Staphylococcus aureus, ATCC29213
Protocol: as §3, §4

[1] = test system: Enterococcus faecalis ATCC 29212; test: MIC broth microdilution (CLSI); format: cell-based, E. faecalis; conditions: Enterococcus faecalis, ATCC29212; read-out: MIC
Protocol: as §3, with “MICs (Tables 1 and S1–S3) were determined with a standard serial broth microdilution technique according to Clinical and Laboratory Standards Institute (CLSI) guidelines.[45] Cation-adjusted” for “Cation-adjusted”
(§5) Bacterial strains were inoculated onto MHBII agar plates and grown overnight at 37 °C. Next, three individual colonies from each strain were inoculated into 1 mL of MHBII medium and propagated at 37 °C overnight, with agitation at 250 rpm. For Enterococcus sp., the cells were plated in brain–heart infusion [(BHI) medium] agar plates, and BHI broth was used to determine the MICs. […] The highest final DMSO concentration in the experiments was 0.64% (in the case of the 64 μg/mL concentration of the inhibitor). Following the dilutions, each well was seeded with 5 × 10^4 bacterial cells (in 100 μL final volume). Each measurement was performed in three parallel replicates, and to avoid possible edge effects in the microwell plates, the outside rows (A, H) were filled with sterile medium. Following the inoculations, the plates were covered with the lids and wrapped in polyethylene plastic bags, to minimize evaporation but to allow O2 transfer. The plates were incubated at 37 °C under continuous shaking at 150 rpm for 18 h. After incubation, the OD600 of each well was measured using a microplate reader (Synergy 2; Biotek). The MICs were defined as the antibiotic concentrations which inhibited the growth of the bacterial cultures; that is, the drug concentration where the average OD600 increment of the three technical replicates was below 1.5-fold the background OD increment.

E. coli ATCC 25922 = test: MIC broth microdilution (CLSI); format: cell-based; conditions: Escherichia coli, ATCC25922; read-out: MIC
Protocol: as §3, with “MICs (Tables 1 and S1–S3) were determined with a standard serial broth microdilution technique according to Clinical and Laboratory Standards Institute (CLSI) guidelines.[45] Cation-adjusted” for “Cation-adjusted”
as §5

E. faecium ATCC 700221 = test: MIC broth microdilution (CLSI); format: cell-based; conditions: Enterococcus faecium, ATCC700221; read-out: MIC
Protocol: as §3, with “MICs (Tables 1 and S1–S3) were determined with a standard serial broth microdilution technique according to Clinical and Laboratory Standards Institute (CLSI) guidelines.[45] Cation-adjusted” for “Cation-adjusted”
as §5

[2] = test system: Enterobacter cloacae spp. cloacae ATCC 13047; test: MIC broth microdilution (CLSI); format: cell-based; conditions: Enterobacter cloacae, ATCC13047; read-out: MIC
Protocol: as §3, with “MICs (Tables 1 and S1–S3) were determined with a standard serial broth microdilution technique according to Clinical and Laboratory Standards Institute (CLSI) guidelines.[45] Cation-adjusted” for “Cation-adjusted”
as §5

K. pneumoniae ATCC 10031 = test: MIC broth microdilution (CLSI); format: cell-based
Protocol: as §3, with “MICs (Tables 1 and S1–S3) were determined with a standard serial broth microdilution technique according to Clinical and Laboratory Standards Institute (CLSI) guidelines.[45] Cation-adjusted” for “Cation-adjusted”
as §5

P. aeruginosa ATCC 27853 = test: MIC broth microdilution (CLSI); format: cell-based; conditions: Pseudomonas aeruginosa, ATCC27853; read-out: MIC
Protocol: as §3, with “MICs (Tables 1 and S1–S3) were determined with a standard serial broth microdilution technique according to Clinical and Laboratory Standards Institute (CLSI) guidelines.[45] Cation-adjusted” for “Cation-adjusted”
as §5

[3] = test system: S. aureus (MRSA) ATCC 43300; test: MIC broth microdilution (CLSI); format: cell-based; conditions: Staphylococcus aureus
Protocol: as §3, with “MICs (Tables 1 and S1–S3) were determined with a standard serial broth microdilution technique according to Clinical and Laboratory Standards Institute (CLSI) guidelines.[45] Cation-adjusted” for “Cation-adjusted”
as §5

[4] = test system: S. aureus (VISA) ATCC 700699; test: MIC broth microdilution (CLSI); format: cell-based; conditions: Staphylococcus aureus; read-out: MIC
Protocol: as §3, with “MICs (Tables 1 and S1–S3) were determined with a standard serial broth microdilution technique according to Clinical and Laboratory Standards Institute (CLSI) guidelines.[45] Cation-adjusted” for “Cation-adjusted”
as §5

physchem = format: physicochemical; conditions: phosphate-buffered saline (PBS)
Protocol: For the PBS, 2.38 g of disodium hydrogen phosphate dodecahydrate, 0.19 g of potassium dihydrogen phosphate, and 8.0 g of sodium chloride were added to distilled water (900 mL), and the solution was mixed overnight. […] Samples were prepared by weighing the exact mass of solid compounds (about 1 mg), and then, the appropriate volume of PBS was added to reach the final concentration of ∼1 mg/mL. […] The supernatant was diluted 3× with a 1:1 mixture of 0.1% TFA in water and acetonitrile and analyzed by HPLC. For the 7-point calibration curves, concentrated stock solutions of the compounds were prepared at concentrations of 10 and 0.5 mM in DMSO, which were diluted with a 1:1 mixture of 0.1% TFA in water and acetonitrile to the desired final concentrations and analyzed by HPLC. Results are given in μM as an average value of two independent experiments. For details on calibration curves, concentrations, analytical method, and HPLC method, see the Supporting Information.
Thermodynamic solubility assay
To determine thermodynamic solubility of compounds in PBS, calibration curves for the assayed compounds were prepared using seven concentrations. First, DMSO stock solutions of compounds at 10 mM and 0.5 mM concentration were prepared and then diluted (0.1% TFA in […]
Quality control (QC) samples were diluted from stock solutions with a 1:1 mixture of 0.1% TFA in water and acetonitrile to final concentrations of 60 µM, 20 µM, and 2 µM (6 µM, 2 µM, and 0.2 µM for 7f or 0.6 µM, 0.2 µM, and 0.02 µM for 7g).
Analytical reversed-phase UHPLC analyses were performed on Thermo Scientific Dionex UltiMate 3000 modular system (Thermo Fisher Scientific Inc., MA, USA). Waters Acquity UPLC® HSS C18 SB column (2.1 × 50 mm, 1.8 μm; Waters, Milford, MA, USA) was used at T […]
Mobile phase consisted of 0.1% trifluoroacetic acid in ultrapure water (solvent A) and acetonitrile […]
The obtained data was processed in Chromeleon CDS software (Thermo Fisher Scientific Inc., […]
Analytical method was tested for accuracy, precision and linear rang. Accuracy was […]
(or 2 or 0.2) µM and 60 (or 6 or 0.6) µM) to their true values and expressed in (%). Values were […]
Method repeatability was determined by calculating the RSD from the separately prepared and analysed quality control samples (n = 3). […] Linearity of the […]
method (1 (or 0.1 or 0.01) µM to 100 (or 10 or 1) µM) was evaluated from the 7-point calibration […]
Solubility was determined in two independent experiments and results were calculated in […]

topo IV from E. coli = target: T2, topo IV from E. coli (Escherichia coli, UniProt P20083); test: relaxation HTS plate assay; format: biochemical
T2 construct: purchased Inspiralis
T2 sequence (P0AFI2 whole entry): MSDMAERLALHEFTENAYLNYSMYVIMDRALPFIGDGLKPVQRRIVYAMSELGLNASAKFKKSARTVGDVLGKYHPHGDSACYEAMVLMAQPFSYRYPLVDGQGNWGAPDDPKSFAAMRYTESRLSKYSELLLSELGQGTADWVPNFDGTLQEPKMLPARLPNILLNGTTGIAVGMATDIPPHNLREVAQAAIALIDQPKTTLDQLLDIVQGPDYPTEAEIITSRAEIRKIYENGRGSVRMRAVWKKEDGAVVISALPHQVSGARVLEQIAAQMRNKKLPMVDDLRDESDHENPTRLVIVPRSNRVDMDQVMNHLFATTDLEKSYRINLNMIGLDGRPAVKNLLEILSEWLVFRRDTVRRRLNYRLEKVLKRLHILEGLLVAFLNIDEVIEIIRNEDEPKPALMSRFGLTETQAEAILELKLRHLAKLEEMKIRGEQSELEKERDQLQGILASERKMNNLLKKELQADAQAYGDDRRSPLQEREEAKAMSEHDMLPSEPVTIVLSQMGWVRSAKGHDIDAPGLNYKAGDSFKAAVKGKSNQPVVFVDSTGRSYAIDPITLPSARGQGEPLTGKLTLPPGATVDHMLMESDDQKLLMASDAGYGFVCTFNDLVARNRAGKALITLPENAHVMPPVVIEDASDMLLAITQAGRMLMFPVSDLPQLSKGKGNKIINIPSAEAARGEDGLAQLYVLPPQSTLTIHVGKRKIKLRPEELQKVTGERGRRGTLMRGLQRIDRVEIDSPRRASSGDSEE
T2 sequence (P20083 whole entry): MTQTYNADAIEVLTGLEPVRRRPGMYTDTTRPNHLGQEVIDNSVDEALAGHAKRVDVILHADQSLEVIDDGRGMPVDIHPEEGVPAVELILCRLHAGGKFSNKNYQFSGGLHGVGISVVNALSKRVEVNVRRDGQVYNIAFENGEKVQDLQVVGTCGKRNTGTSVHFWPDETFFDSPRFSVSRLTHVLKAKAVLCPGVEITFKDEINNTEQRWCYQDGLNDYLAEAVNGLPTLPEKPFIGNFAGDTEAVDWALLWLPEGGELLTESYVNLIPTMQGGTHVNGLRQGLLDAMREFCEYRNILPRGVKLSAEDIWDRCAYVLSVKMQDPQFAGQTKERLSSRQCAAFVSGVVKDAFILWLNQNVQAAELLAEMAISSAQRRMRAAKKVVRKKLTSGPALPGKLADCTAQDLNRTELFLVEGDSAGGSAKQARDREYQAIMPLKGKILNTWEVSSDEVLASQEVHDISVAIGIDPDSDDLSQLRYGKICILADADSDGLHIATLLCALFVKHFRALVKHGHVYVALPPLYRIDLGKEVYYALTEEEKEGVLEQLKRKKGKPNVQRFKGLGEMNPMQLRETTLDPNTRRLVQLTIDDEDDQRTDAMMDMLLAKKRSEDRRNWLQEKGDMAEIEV
Protocol: as §1, §2

[5] = read-out: MIC [µg/mL] (A. baumannii ATCC 17978)
[6] = read-out: MIC [µg/mL](S. aureus ATCC 29213)
[7] = Klebsiella pneumoniae, ATCC10031, read-out: MIC
[8] = read-out: MIC [µg/mL](S. aureus MRSA ATCC4330)

Compound	IC50 (DNA gyrase from E. coli) [nM]	MIC (A. baumannii ATCC 17978; read-out: MIC) [µg/mL]	MIC (A. baumannii ATCC 17978; [5]) [µg/mL]	MIC (S. aureus ATCC 29213; read-out: MIC) [µg/mL]	MIC (S. aureus ATCC 29213; [6]) [µg/mL]	MIC [1] [µg/mL]	MIC (E. coli ATCC 25922) [µg/mL]	MIC (E. faecium ATCC 700221) [µg/mL]	MIC [2] [µg/mL]	MIC (K. pneumoniae ATCC 10031; [7]) [µg/mL]	MIC (P. aeruginosa ATCC 27853) [µg/mL]	MIC ([3]; read-out: MIC) [µg/mL]	MIC [3, 8] [µg/mL]	MIC [4] [µg/mL]	solubility thermodynamic at 24 h (physchem; pH 7.4, PBS pH 7.4, read-out: thermodynamic solubility, Experiment 1) [µM]	solubility thermodynamic at 24 h (physchem; pH 7.4, PBS pH 7.4, read-out: thermodynamic solubility, Experiment 2) [µM]	solubility thermodynamic at 24 h (physchem; pH 7.4, thermodynamic solubility (pH = 7.4), PBS, 37 °C, 24 h, mean of two) [µM]	IC50 (topo IV from E. coli; IC50) [nM]	IC50 (topo IV from E. coli; IC50 [nM] E. coli TopoIV) [nM]	MIC (K. pneumoniae ATCC 10031) [µg/mL]
Cc1[nH]c(C(=O)Nc2nc3c(N4CCC5(CC4)OCCO5)cc(C(=O)O)cc3s2)c(Cl)c1Cl [7r, 2-(3,4-Dichloro-5-methyl-1H-pyrrole-2-carboxamido)-4-(1,4-dioxa-8-azaspiro[4.5]decan-8-yl)benzo[d]thiazole-6-carboxylic Acid]	17 ± 11	8	8	< 0.0312	< 0.0312	< 0.0312	4	< 0.0312	32	2	8	< 0.0312	< 0.0312	< 0.0312	26.7 (≈ 13.7 µg/mL)	27.3 (≈ 13.9 µg/mL)	27 (≈ 13.8 µg/mL)			
Cc1[nH]c(C(=O)Nc2nc3c(N4CC[S+]([O-])CC4)cc(C(=O)O)cc3s2)c(Cl)c1Cl [7s, 2-(3,4-Dichloro-5-methyl-1H-pyrrole-2-carboxamido)-4-(1-oxidothiomorpholino)benzo[d]thiazole-6-carboxylic Acid]	< 10	> 64	> 64	> 64	> 64	16	> 64	16	> 64	32	> 64	64	64	> 64				< 100	72 ± 3	
Cc1[nH]c(C(=O)Nc2nc3c(N4CC[C@H](N)C4)cc(C(=O)O)cc3s2)c(Cl)c1Cl.Cl [8a, (S)-1-(6-Carboxy-2-(3,4-dichloro-5-methyl-1H-pyrrole-2-carboxamido)benzo[d]thiazol-4-yl)pyrrolidin-3-aminium Chloride]	< 10	> 32	> 32	32	32	32	> 32	32	> 32	4	> 32	16	16	8				< 100	38 ± 10	4
